Series [1] deals with ob/ob mouse. In words: In vivo assay of reduction of food intake (15 h, osmotic minipump infusion). To be noted: for % Inhibition of Food Intake in ob/ob mice at 50 mg/Kg/day, 15 h: continuous subcutaneous infusion. As to the method:
Obese (ob/ob) mouse is selected as the primary animal model for screening as this mutant mouse consumes high amounts of food resulting in a high signal to noise ratio. To further substantiate and compare efficacy data, the effect of the compounds on food consumption is also studied in wild type (C57BL/6J) mice. The amount of food consumed during 15 hours of infusion of compounds is recorded.
Male mice (obese C57BL/6JBom-Lee and lean wild-type C57B1/6JBom; Bomholtsgaard, Denmark) 8-9 weeks with an average body weight of 50 g (obese) and 25 g (lean) are used in all the studies. The animals are housed singly in cages at 23±1° C., 40-60% humidity and have free access to water and standard laboratory chow. The 12/12-h light/dark cycle is set to lights off at 5 p.m. The animals are conditioned for at least one week before start of study.
The test compounds are dissolved in solvents suitable for each specific compound such as cyclodextrin, cyclodextrin/methane sulfonic acid, polyethylene glycol/methane sulfonic acid, saline. Fresh solutions are made for each study. […] The purity of the test compounds is of analytical grade.
The animals are weighed at the start of the study and randomized based on body weight. Alzet osmotic minipumps (Model 2001 D; infusion rate 8 μl/h) are used and loaded essentially as recommended by the Alzet technical information manual (Alza Scientific Products, 1997; Teeuwes and Yam, 1976). Continuous subcutaneous infusion with 24 hours duration is used. The minipumps are either filled with different concentrations of test compounds dissolved in vehicle or with only vehicle solution and maintained in vehicle pre-warmed to 37° C. (approx. 1 h). The minipumps are implanted subcutaneously in the neck/back region under short acting anesthesia (metofane/enflurane). This surgical procedure lasts approximately 5 min. It takes about 3 h to reach steady state delivery of the compound.
(§1) The weight of the food pellets are measured at 5 p.m. and at 8 p.m. for two days before (baseline) and one day after the implantation of the osmotic minipumps. The weigh-in is performed with a computer assisted Mettler Toledo PR 5002 balance. Occasional spillage is corrected for. At the end of the study the animals are killed by neck dislocation and trunk blood sampled for later analysis of plasma drug concentrations.
Food consumption for 15 hours is measured for the three consecutive days and the percentage of basal level values is derived for each animal from the day before and after treatment. The values are expressed as mean±SD and ±SEM from eight animals per dose group. Statistical evaluation is performed by Kruskal-Wallis one-way ANOVA using the percent basal values. If statistical significance is reached at the level of p<0.05, Mann-Whitney U-test for statistical comparison between control and treatment groups is performed.

The nature of series [2]: Plasma drug concentration at steady state in the food intake study (LC/MS). It is filed as in vivo. Details: unit not given here. To be noted: ob/ob mouse, trunk blood at end of study. As for the experimental part:
as §1
The plasma sample proteins are precipitated with methanol, centrifuged and the supernatant is transferred to HPLC vials and injected into the liquid chromatography/mass spectrometric system. The mass spectrometer is set for electrospray positive ion mode and Multiple Reaction Monitoring (MRM with the transition m/z 316 ? 221). A linear regression analysis of the standards forced through the origin is used to calculate the concentrations of the unknown samples.

Molecules are shown by their SMILES.

For orientation: melting point means the temperature, or range, at which the solid turns liquid. As to `Cc1ccc(S(=O)(=O)Nc2ccc(N3CCNCC3)c3ccccc23)cc1.Cl`, the melting point is 181 °C (dec.).
As for `Cl.O=S(=O)(Nc1ccc(N2CCNCC2)c2ccccc12)c1ccc2ccccc2c1` [Example 13, 2-N-[4-(1-piperazinyl)-1-naphthyl]naphthalenesulfonamide, hydrochloride], the “% Inhibition of Food Intake in ob/ob mice at 50 mg/Kg/day, 15 h” value (from here on “% Inhibition … at 50 mg/Kg/day, 15 h”) in series [1] was 24.1%. In series [2], the “Free plasma concentration of the compounds at steady state (Css, u)” value (shortened to “Free plasma concentration”) worked out at 0.035.
In the case of `Cc1ccc(S(=O)(=O)N(C)c2ccc(N3CCNCC3)c3ccccc23)cc1.Cl` [Example 14, N,4-Dimethyl-N-[4-(1-piperazinyl)-1-naphthyl]benzenesulfonamide, hydrochloride], the “% Inhibition of Food Intake in ob/ob mice, 15 h” value in series [1] (dose of 100 mg/kg/d (footnote b)) was 41^b %. The “Free plasma concentration” value in series [2] turned out to be 0.23.
With `Cl.O=S(=O)(Nc1ccc(N2CCNCC2)c2ccccc12)c1ccc(Br)cc1` [Example 19, 4-Bromo-N-(4-piperazin-1-yl-naphthalen-1-yl)-benzenesulfonamide, hydrochloride], the “% Inhibition … at 50 mg/Kg/day, 15 h” value in series [1] came to 69.6%. The “Free plasma concentration” value in series [2] is reported as 0.150.
Consider `Cl.O=S(=O)(Nc1ccc(N2CCNCC2)c2ccccc12)c1cccc(C(F)(F)F)c1` [Example 24, 3-Trifluoromethyl-N-[4-(1-piperazinyl)-1-naphthyl]benzenesulfonamide, hydrochloride], for which the “% Inhibition … at 50 mg/Kg/day, 15 h” value in series [1] turned out to be 46.2%. In series [2], the “Free plasma concentration” value is on record as 0.0076.
For `Cl.O=S(=O)(Nc1ccc(N2CCNCC2)c2ccccc12)c1cccc2ccccc12` [Example 27, Naphthalene-1-sulfonic acid (4-piperazin-1-yl-naphthalen-1-yl)-amide, hydrochloride] the same measures were 68.9% and 0.008.
`COc1ccc(S(=O)(=O)Nc2ccc(N3CCNCC3)c3ccccc23)cc1.Cl` [Example 29, 4-Methoxy-N-(4-piperazin-1-yl-naphthalen-1-yl)-benzenesulfonamide, hydrochloride]: the “% Inhibition … at 50 mg/Kg/day, 15 h” value in series [1] is 71%. Besides, the “Free plasma concentration” value in series [2] is on record as 0.33.
The like results for `Cl.O=S(=O)(Nc1ccc(N2CCNCC2)c2ccccc12)c1ccc(Cl)cc1` [Example 30, 4-Chloro-N-(4-piperazin-1-yl-naphthalen-1-yl)-benzenesulfonamide, hydrochloride] were, in that order, 60.1% and 0.275.
Take `Cc1ccc(F)cc1S(=O)(=O)Nc1ccc(N2CCNCC2)c2ccccc12.Cl` [Example 34, 5-Fluoro-2-methyl-N-(4-piperazin-1-yl-naphthalen-1-yl)-benzenesulfonamide, hydrochloride]: in series [1], the “% Inhibition … at 50 mg/Kg/day, 15 h” value worked out at 51.4%. Also, in series [2], the “Free plasma concentration” value was 0.078.
For `Cc1c(Cl)cccc1S(=O)(=O)Nc1ccc(N2CCNCC2)c2ccccc12.Cl` [Example 48, 3-Chloro-2-methyl-N-(4-piperazin-1-yl-naphthalen-1-yl)-benzenesulfonamide, hydrochloride] the same measures were 23.8% and 0.008.
In the case of `Cc1cc(Cl)cc(Cl)c1S(=O)(=O)Nc1ccc(N2CCNCC2)c2ccccc12.Cl` [Example 53, 2,4-Dichloro-6-methyl-N-(4-piperazin-1-yl-naphthalen-1-yl)-benzenesulfonamide, hydrochloride], the “% Inhibition of Food Intake in ob/ob mice, 15 h” value in series [1] (dose of 14.8 mg/kg/d (footnote a)) was 25.7^a %.

For the origin of these results see patent US20100222330A1, “New Compounds” (BIOVITRUM AB, priority 2001, published 2010).
